Results from PubChem BioAssay AID1996.
Values after ≈ are worked out from the molar mass of the structure shown.

Settings: buffer; pH 7.4; 200.0 µM

| Structure (SMILES) | solubility kinetic [µg/mL] |
| --- | --- |
| CCC(C(=O)Nc1ccc(C(=O)N2CCCC2)cc1)c1ccccc1 (stereo not given) | > 50.5 |
| CCOC(=O)Cc1nc(-c2cccc(C(F)(F)F)c2)no1 | 7.6 (≈ 25.3 µM) |
| CC(C)(C)c1ccc(-c2noc(-c3ccno3)n2)cc1 | < 0.2 |
| CCOc1ccc(S(=O)(=O)NC2CCCC2)cc1C | > 42.5 |
| Cc1cc(OCCN2CCOCC2)ccc1Cl | 25.9 (≈ 101 µM) |
| O=C1CCC(=O)N1c1ccc(-c2nc3sc4c(c3c(=O)o2)CCC4)cc1 | 1 (≈ 2.73 µM) |
| COc1ccc(C(=O)Nc2ccc3ccccc3n2)cc1OC | 0.7 (≈ 2.27 µM) |
| CCOC(=O)c1cnc2c(ccc3ccccc32)c1NCCN(C)C | 36.3 (≈ 108 µM) |
| CCC(O)c1nc2ccccc2n1CCc1ccccc1 (stereo not given) | 17.1 (≈ 61 µM) |
| CCCN1CCC(NCC(C)c2ccccc2)CC1 (stereo not given) | 38.8 (≈ 149 µM) |
| O=C(NCc1ccc(F)cc1)c1ccc(Br)o1 | 37.9 (≈ 127 µM) |
| CN1C=C/C(=C\c2cc[n+](C)c3ccccc23)c2ccccc21.[I-] | 40.1 |
| CCOC(=O)C1(CC2CC2)CCN(Cc2ccc(C(=O)OC)cc2)CC1 | 42.8 (≈ 119 µM) |
| O=C(C1CCCC1)N1CCCC(Nc2ccc(F)cc2)C1 (stereo not given) | > 43.6 |
| CCCCNC(=O)CCc1nc2cccnc2n1Cc1ccccc1 | > 50.5 |
| COc1ccc(CC(=O)Nc2ccc3nc(SC)sc3c2)cc1OC | 34.3 (≈ 91.6 µM) |
| Cc1cc(C(=O)NC(C)C2CCCO2)no1 (stereo not given) | > 33.6 |
| CC(CNC(=O)COC(=O)c1ccco1)c1ccccc1 (stereo not given) | > 43.1 |
| CC(C)(C)NC(=S)NC1CC1 | 25.8 (≈ 150 µM) |
| Nc1cc(N)nc(SCC(=O)Nc2ccccc2N2CCOCC2)n1 | 49.6 (≈ 138 µM) |
| CC(=O)Nc1ccc2sc(NC(=O)CN3CCOCC3)nc2c1 | > 50.2 |
| COc1cccc(NC(=S)N2CCN(S(C)(=O)=O)CC2)c1 | > 49.4 |
| Cc1ccc(C(=O)NCCCNC(=O)c2cccnc2)cc1 | > 44.6 |
| CNCCCN1c2ccccc2CCc2ccccc21.Cl | > 45.4 |

| Structure (SMILES) | solubility kinetic [µg/mL] |
| --- | --- |
| N/C(=N/S(=O)(=O)c1ccccc1)c1cccc([N+](=O)[O-])c1 | > 45.8 |
| COC(=O)c1cccnc1Oc1ccccc1 | 26.5 (≈ 116 µM) |
| N/C(=N\O)c1ccc(Oc2ccccc2Cl)c([N+](=O)[O-])c1 | 44.1 (≈ 143 µM) |
| CC(C)[C@H](NS(=O)(=O)c1ccccc1)C(=O)Nc1ccccc1N1CCOCC1 | 52.1 (≈ 125 µM) |
| CCc1ccc(NC(=S)N2CCCCCCC2)cc1 | 35.1 (≈ 127 µM) |
| COc1ccc(CCN2CC(C(=O)NCC(c3ccccc3)N(C)C)CC2=O)cc1OC (stereo not given) | > 65.9 |
| CNS(=O)(=O)c1cc(N)ccc1C | 26.2 (≈ 131 µM) |
| COc1cc(NC(=O)c2cc(C)no2)cc(OC)c1OC | > 43.8 |
| Oc1ccc(C(=S)N2CCCC2)cc1 | > 31.1 |
| COc1ccc(OC)c2sc(N(CCN(C)C)C(=O)c3ccc4ccccc4c3)nc12.Cl | 8.6 |
| CN(Cc1ccccc1Cl)C(=O)c1cnccc1C(F)(F)F | > 49.3 |
| Cc1ccc(C(C)C)c(OCC#CCN2CCCC2)c1.O=C(O)C(=O)O | 25.7 |
| CCOC(=O)c1cnc2cc(F)c(F)cc2c1N1CCOCC1 | 39.4 (≈ 122 µM) |
| COc1ccc(/C=C/C2=CC(C)(C)NC(=S)N2)cc1 | 9.4 (≈ 34.3 µM) |
| COc1ccc(OC)c(Nc2nc(C)nc3c2oc2ccccc23)c1 | < 0.2 |
| O=c1oc2ccccc2n1Cc1cccc(F)c1 | 8.3 (≈ 34.1 µM) |
| O=C(COC(=O)CCC1CCCC1)Nc1ccc(F)cc1 | 5.9 (≈ 20.1 µM) |
| O=C(NCc1ccco1)C1CC(O)CN1C(=O)Nc1ccccc1 (stereo not given) | > 49.4 |
| O=[N+]([O-])c1ccccc1CN1CCN(c2ncccn2)CC1 | 34.8 (≈ 116 µM) |
| CC1CCN(CC(=O)N2CCc3ccccc32)CC1 | 36.9 (≈ 143 µM) |
| COc1ccc(CCNC(=O)CCCc2ccccc2)cc1 | 35.6 (≈ 120 µM) |
| COC(=O)CNC(=O)COC(=O)c1ccc(Cl)nc1 | > 43 |
| CC(=O)c1cccc(NC(=O)C2COc3ccccc3O2)c1 (stereo not given) | 44.1 (≈ 148 µM) |
| O=C(CN1C(=O)NC2(CCCC2)C1=O)OCc1ccccc1 | 21.8 (≈ 72.1 µM) |

| Structure (SMILES) | solubility kinetic [µg/mL] |
| --- | --- |
| O=C(c1ccccc1)c1ccc(-n2ccnc2)c([N+](=O)[O-])c1 | 34.4 (≈ 117 µM) |
| Cc1ccc(NC(=O)c2ccc3c(c2)OCCO3)cc1C | 25.8 (≈ 91.1 µM) |
| CCCCN1C(=O)C(=O)N(CC(=O)NC2CCCc3ccccc32)C1=O (stereo not given) | 50.9 (≈ 142 µM) |
| COC(=O)c1ccccc1NC(=O)c1cc(-c2ccco2)on1 | 0.6 (≈ 1.92 µM) |
| N/C(=N\OC(=O)c1ccc(Cl)cc1[N+](=O)[O-])c1cccnc1 | 12.5 (≈ 39 µM) |
| CN1C(=O)N(c2ccc(Cl)cc2)C(C)(O)CC1(C)C (stereo not given) | > 42.4 |
| COc1ccc(NC(=S)NCc2ccc(Cl)cc2)c(OC)c1 | 28.3 (≈ 84 µM) |
| C=CCN(CC=C)C(=S)NC(=O)c1ccc(OC)cc1 | > 43.6 |
| CC1CC(C)CN(C(=O)COc2cccnc2[N+](=O)[O-])C1 (stereo not given) | > 44 |
| Cc1ccc(NC(=O)CSc2nc(C)c(Cc3ccccc3)c(=O)[nH]2)cc1 | 1.4 (≈ 3.69 µM) |
| Cc1cnc(C(=O)OC(C)C(=O)NCc2ccccc2)cn1 (stereo not given) | > 44.9 |
| Cn1cccc1CNC(=S)Nc1cc(F)cc(F)c1 | > 42.2 |
| O=S(=O)(c1ccc(Cl)cc1)N1CCCC1c1cccnc1 (stereo not given) | > 48.4 |
| COC(=O)Cc1c(O)ccn(CCc2ccc(OC)c(OC)c2)c1=O | > 52.1 |
| CC1CCCC(C)N1C(=O)COC(=O)c1c[nH]c2ccccc12 (stereo not given) | 8.1 (≈ 25.8 µM) |
| CC(=O)NCc1cc(-c2ccc(Cl)cc2)no1 | 37.2 (≈ 148 µM) |
| O=C(Cc1c(F)cccc1Cl)OCC(=O)N1CCc2ccccc21 | 9.5 (≈ 27.3 µM) |
| CCc1ccc2oc(C(=O)Nc3nonc3C)c(C)c2c1 | < 0.2 |
| O=C(COC(=O)/C=C/c1cccc(F)c1)NC(=O)NCc1ccccc1 | 2.8 (≈ 7.86 µM) |
| O=C(c1ccco1)N1CCN(C(=O)N2CCCC2)CC1 | 38.7 (≈ 140 µM) |
| CCN(CC)c1ccc(C=Nc2cccc(S(=O)(=O)N3CCOCC3)c2)c(O)c1 | 8.3 (≈ 19.9 µM) |
| Cn1c(=O)oc2cc(S(=O)(=O)NCc3ccc(C(=O)O)cc3)ccc21 | > 54.4 |
| COC(=O)c1ccc(S(=O)(=O)NCc2ccco2)o1 | 38.8 (≈ 136 µM) |
| COc1cccc(OC)c1C(=O)OCC(=O)N(C)c1ccccc1 | 43 (≈ 131 µM) |

| Structure (SMILES) | solubility kinetic [µg/mL] |
| --- | --- |
| COc1ccc(NC(=O)CC2CCCC2)cc1OC | > 39.5 |
| Cc1cccc(NC(=O)C(c2ccccc2Cl)N2CCOCC2)c1 (stereo not given) | 48.9 (≈ 142 µM) |
| CN(Cc1ccccc1)C(=O)COc1ccc(Br)cc1Cl | 12.6 (≈ 34.2 µM) |
| O=C(c1cc(-c2ccc(O)cc2)on1)N1CCOCC1 | > 41.1 |
| O=C(COc1ccccc1Cl)NCCNC(=O)c1ccncc1 | > 50.1 |
| NC1=NC(c2cccnc2)n2c(nc3ccccc32)N1 (stereo not given) | > 39.6 |
| N#Cc1ccc(C(=O)NC(=S)N2CCN(C=O)CC2)cc1 | 39 (≈ 129 µM) |
| CCOC(=O)C1(CC2CC2)CCN(C(=O)c2ocnc2C)CC1 | > 48.1 |
| Cc1cc(C(=O)Nc2ccccc2C(=O)O)oc1C | 31.3 (≈ 121 µM) |
| CC(C)c1ccc(NC(=O)COC(=O)[C@@H]2CCCN2C(=O)c2cccs2)cc1 | 13.3 (≈ 33.2 µM) |
| Cn1c(SCC(=O)Nc2ccc3c(c2)OCCO3)nnc1-c1ccncc1 | > 57.5 |
| COc1ccccc1-n1cc(-c2ccc([N+](=O)[O-])cc2)[nH]c1=S | 0.3 (≈ 0.916 µM) |
| CC(NC(=O)CCC(=O)c1ccc(F)cc1)C1CC2CCC1C2 (stereo not given) | 12.5 (≈ 39.4 µM) |
| O=C(CN1CCc2ccccc2C1)Nc1ccc(F)cc1 | 39.2 (≈ 138 µM) |
| CC(C)(C)C(=O)NC(=S)N1CCc2ccccc21 | 31 (≈ 118 µM) |
| CCOC(=O)CC(=O)CSc1nccc(-c2cccnc2)n1 | > 47.6 |
| O=C(Cc1ccccc1F)Nc1cccc(S(=O)(=O)N2CCOCC2)c1 | > 56.8 |
| CC(C)c1ccc(/C=C/c2[nH]c(=O)[nH]c(=O)c2[N+](=O)[O-])cc1 | 19.3 (≈ 64.1 µM) |
| O=C(Nc1cnccn1)Nc1ccccc1F | 8.7 (≈ 37.5 µM) |
| O=C(O)c1[nH]c2ccccc2c1C=NCc1ccccc1Cl | 46.3 (≈ 148 µM) |
| Cc1noc(C)c1C(=O)OCC(=O)NCc1ccc(Cl)cc1 | 15.6 (≈ 48.3 µM) |
| COCCNC(=O)/C(C#N)=C/c1ccc(O)c([N+](=O)[O-])c1 | > 43.7 |
| O=C(NCc1ccccc1)N1CCOCC1 | > 33 |
| O=[N+]([O-])c1cccc(-c2nc3ccc([N+](=O)[O-])cc3[nH]2)c1 | 1.2 (≈ 4.22 µM) |

| Structure (SMILES) | solubility kinetic [µg/mL] |
| --- | --- |
| Nc1ccccc1-c1nc2ccccc2[nH]c1=O | 33.8 (≈ 142 µM) |
| CC(=O)c1c(COC(=O)c2ccccc2Cl)nc2ccccc2[n+]1[O-] | 15.9 (≈ 44.6 µM) |
| CCN(CC(=O)NCc1cccs1)CC(=O)Nc1ccc(C(N)=O)cc1 | > 56.2 |
| Cc1cn(CC(=O)c2ccccc2)c2ccccc12 | 1.2 (≈ 4.81 µM) |
| O=C(CSc1nc(-c2ccccc2)cc(=O)[nH]1)Nc1ccccc1F | < 0.2 |
| CC(=O)Nc1ccc(NC(=O)c2cc[n+]([O-])cc2)cc1 | > 40.7 |
| COCCCN(CC(=O)O)S(=O)(=O)c1cccc(Cl)c1 | > 48.3 |
| O=C(NCCc1cccc(Cl)c1)c1cc2ccccc2oc1=O | < 0.7 |
| Cc1csc(NC(=O)c2ccc3c(c2)OCO3)n1 | 31.4 (≈ 120 µM) |
| CC(C)OCCCNC(=O)C1CCN(S(=O)(=O)N2CCCC2)CC1 | > 54.2 |
| Cc1cccc(NC(=O)NCCN2CCN(c3ccccc3)CC2)c1C | 11.5 (≈ 32.6 µM) |
| COc1ccc(CNc2ncccn2)cc1OC | > 36.8 |
| NS(=O)(=O)c1cc2c(cc1C(F)(F)F)NCNS2(=O)=O | > 49.7 |
| N#Cc1ccc(NCCc2ccccn2)c([N+](=O)[O-])c1 | > 40.2 |
| CSc1ccccc1C(=O)N1CCc2ccccc2C1 | > 42.5 |
| O=S(=O)(NCC1CCCO1)c1ccccc1 (stereo not given) | > 36.2 |
| CC(C)c1nc(NCCO)c(C#N)c2c1CCCC2 | 9 (≈ 34.7 µM) |
| O=C(O)c1cc2n(n1)C(C(F)(F)F)CC(C1CC1)N2 (stereo not given) | > 41.3 |
| COc1ccc(NS(=O)(=O)c2cccc(C(=O)NCC(c3cccs3)N3CCOCC3)c2)cc1 (stereo not given) | 71.3 (≈ 142 µM) |
| CN1C(=S)SC(/[N+]([O-])=C/c2c(F)cccc2Cl)C1(C)C (stereo not given) | > 49.9 |
| CCOc1ccc(N)cc1OC.Cl | > 30.6 |
| O=C(NNC(=O)c1cccnc1)NC1CCCCC1 | > 39.3 |
| CCOc1ccc(C(=O)N2CCN(c3ccccn3)CC2)cc1 | > 46.7 |
| O=C(OCN1C(=O)c2ccccc2C1=O)c1ccc(Cl)nc1 | 14.3 (≈ 45.2 µM) |
